In PubChem BioAssay AID874 (The Scripps Research Institute Molecular Screening Center, 2007):
Activity calls are given as the source filed them. How the calls were made is not given here.

Tested on: CRE-BLA reporter cells, beta-lactamase FRET, counterscreen
Assay: CRE beta-lactamase reporter activation by analogues – cell-based, purchased analogues, beta-lactamase FRET, counter-screen for S1P2 agonist project, SAR follow-up (AID 874)

SMILES	EC50
CCC1(CC)NC(=O)N(CC(=O)OCC(=O)c2cc(C)n(Cc3ccccc3)c2C)C1=O	> 44 µM (inactive)
Cc1cc(C(=O)CN(C)CC(=O)NC(C)(C)C)c(C)n1Cc1ccccc1	> 44 µM (inactive)
COCCNC(=O)CN(C)CC(=O)c1cc(C)n(Cc2ccccc2)c1C	> 44 µM (inactive)
Cc1cc(C(=O)Cn2cnc3c(oc4ccccc43)c2=O)c(C)n1Cc1ccccc1	> 44 µM (inactive)
CCNC(=O)CN(CC)CC(=O)c1cc(C)n(Cc2ccccc2)c1C	> 44 µM (inactive)
Cc1nn(CC(=O)c2cc(C)n(Cc3ccccc3)c2C)c(C)c1[N+](=O)[O-]	> 44 µM (inactive)
Cc1cc(C(=O)CN(C)CC(=O)N(C)C)c(C)n1Cc1ccccc1	> 44 µM (inactive)
Cc1cc(C(=O)CN(C)Cc2ccco2)c(C)n1Cc1ccccc1	> 44 µM (inactive)
Cc1cc(C(=O)CN2C(=O)C(=O)N(Cc3ccco3)C2=O)c(C)n1Cc1ccccc1	> 44 µM (inactive)
Cc1cc(C(=O)CSc2ncn[nH]2)c(C)n1Cc1ccccc1	> 44 µM (inactive)
CCCNC(=O)CN(C)CC(=O)c1cc(C)n(Cc2ccccc2)c1C	> 44 µM (inactive)
Cc1cc(C(=O)CN2C(=O)C(=O)N(C)C2=O)c(C)n1Cc1ccccc1	> 44 µM (inactive)
Cc1cc(C(=O)COc2ccc(C(N)=O)cc2)c(C)n1Cc1ccccc1	> 44 µM (inactive)
Cc1nc(C)c(C(=O)OCC(=O)c2cc(C)n(Cc3ccccc3)c2C)s1	> 44 µM (inactive)
CC(=O)c1ccc(OCC(=O)c2cc(C)n(Cc3ccccc3)c2C)cc1	> 44 µM (inactive)
Cc1cc(C(=O)CN2C(=O)C(=O)N(Cc3ccccc3)C2=O)c(C)n1Cc1ccccc1	> 44 µM (inactive)
CCOC(=O)c1cc(C)n(Cc2ccccc2)c1C	> 44 µM (inactive)
Cc1cc(C(=O)CN2C(=O)CCC2=O)c(C)n1Cc1ccccc1	> 44 µM (inactive)
Cc1cc(C(=O)COC(=O)CN2C(=O)NC(C)(C)C2=O)c(C)n1Cc1ccccc1	> 44 µM (inactive)
Cc1cc(C(=O)CN(C)CC(=O)NC(C)C)c(C)n1Cc1ccccc1	> 44 µM (inactive)

SMILES	EC50
CNC(=O)c1ccc(CN(C)CC(=O)c2cc(C)n(Cc3ccccc3)c2C)cc1	> 44 µM (inactive)
CC(=O)c1cccc(OCC(=O)c2cc(C)n(Cc3ccccc3)c2C)c1	> 44 µM (inactive)
Cc1noc(C)c1C(=O)OCC(=O)c1cc(C)n(Cc2ccccc2)c1C	> 44 µM (inactive)
Cc1cc(C(=O)COC(=O)C(O)c2ccccc2)c(C)n1Cc1ccccc1 (centres undefined)	> 44 µM (inactive)
Cc1cc(C(=O)COC(=O)CN2C(=O)C3CCCCC3C2=O)c(C)n1Cc1ccccc1 (centres undefined)	> 44 µM (inactive)
COc1cccc(C2(C)NC(=O)N(CC(=O)c3cc(C)n(Cc4ccccc4)c3C)C2=O)c1 (centres undefined)	> 44 µM (inactive)
Cc1cc(C(=O)Cn2cc(C(F)(F)F)ccc2=O)c(C)n1Cc1ccccc1	> 44 µM (inactive)
Cc1cc(C(=O)CN2C(=O)C(=O)N(Cc3ccccc3)C2=O)c(C)n1Cc1ccco1	> 44 µM (inactive)
Cc1cc(C(=O)CSc2ncccn2)c(C)n1Cc1ccccc1	> 44 µM (inactive)
COc1ccc(NC(=O)CN(C)CC(=O)c2cc(C)n(Cc3ccccc3)c2C)cc1	> 44 µM (inactive)
Cc1cc(C(=O)CN2C(=O)NC3(CCc4ccccc43)C2=O)c(C)n1Cc1ccccc1 (centres undefined)	> 44 µM (inactive)
Cc1cc(C(=O)CN2C(=O)NC3(CCOc4ccccc43)C2=O)c(C)n1Cc1ccccc1 (centres undefined)	> 44 µM (inactive)
Cc1sc2ncn(CC(=O)c3cc(C)n(Cc4ccccc4)c3C)c(=O)c2c1C	> 44 µM (inactive)
CC(=O)Nc1ccc(OCC(=O)c2cc(C)n(Cc3ccccc3)c2C)cc1	> 44 µM (inactive)
Cc1cc(C(=O)CN(C)CC(=O)N2CCOCC2)c(C)n1Cc1ccccc1	> 44 µM (inactive)
CC(=O)Nc1ccc(SCC(=O)c2cc(C)n(Cc3ccccc3)c2C)cc1	> 44 µM (inactive)
Cc1cc(C(=O)CSc2nnnn2C(C)(C)C)c(C)n1Cc1ccccc1	> 44 µM (inactive)
Cc1ccc(C(=O)OCC(=O)c2cc(C)n(Cc3ccccc3)c2C)o1	> 44 µM (inactive)
Cc1cc(C(=O)COC(=O)CCS(=O)(=O)c2ccccc2)c(C)n1Cc1ccccc1	> 44 µM (inactive)
Cc1cc(C(=O)O)c(C)n1Cc1ccccc1	> 44 µM (inactive)

SMILES	EC50
Cc1cc(C(=O)CSc2nnnn2C)c(C)n1Cc1ccccc1	> 44 µM (inactive)
Cc1cc(C(=O)CN2C(=O)C(=O)N(C3CCCC3)C2=O)c(C)n1Cc1ccccc1	> 44 µM (inactive)
Cc1cc(C(=O)CN2C(=O)C(=O)N(Cc3ccccc3)C2=O)c(C)n1Cc1ccc(F)cc1	> 44 µM (inactive)
Cc1cc(C(=O)CN2CCN(C(=O)c3ccco3)CC2)c(C)n1Cc1ccccc1	> 44 µM (inactive)
Cc1cc(C(=O)CN2C(=O)CCC2=O)c(C)n1Cc1ccc2c(c1)OCO2	> 44 µM (inactive)
Cc1cc(C(=O)CN2C(=O)NC(Cc3ccccc3)C2=O)c(C)n1Cc1ccccc1 (centres undefined)	> 44 µM (inactive)
Cc1cc(C(=O)CSc2nnnn2C2CC2)c(C)n1Cc1ccccc1	> 44 µM (inactive)
Cc1cc(C(=O)COC(=O)c2ccco2)c(C)n1Cc1ccccc1	> 44 µM (inactive)
Cc1cc(C)nc(SCC(=O)OCC(=O)c2cc(C)n(Cc3ccccc3)c2C)n1	> 44 µM (inactive)
Cc1cc(C(=O)CSc2nnc(C3CC3)n2C)c(C)n1Cc1ccccc1	> 44 µM (inactive)
Cc1cc(C(=O)Cn2cnc3c2c(=O)n(C)c(=O)n3C)c(C)n1Cc1ccccc1	> 44 µM (inactive)
Cc1cc(C(=O)CN(C)CC(=O)N2CCCC2)c(C)n1Cc1ccccc1	> 44 µM (inactive)
Cc1cc(C(=O)CN(C)CC(=O)NC2CC2)c(C)n1Cc1ccccc1	> 44 µM (inactive)
COc1ccc(C(N)=O)c(OCC(=O)c2cc(C)n(Cc3ccccc3)c2C)c1	> 44 µM (inactive)
Cc1cc(C(=O)COC(=O)C2CSC3(C)CCC(=O)N23)c(C)n1Cc1ccccc1 (centres undefined)	> 44 µM (inactive)
Cc1cc(C(=O)CN2C(=O)NC(Cc3ccccc3)C2=O)c(C)n1Cc1cccs1 (centres undefined)	> 44 µM (inactive)
Cc1cc(C(=O)COC(=O)C2CCC2)c(C)n1Cc1ccccc1	> 44 µM (inactive)
Cc1cc(C(=O)COC(=O)Cn2cnc3ccccc3c2=O)c(C)n1Cc1ccccc1	> 44 µM (inactive)
Cc1cc(C(=O)COC(=O)Cn2c(=O)oc3ccccc32)c(C)n1Cc1ccccc1	> 44 µM (inactive)
